Source: US9624182B2, “Compounds as lysophosphatidic acid receptor antagonists” (Amira Pharmaceuticals, Inc., priority 2009, dated 2017)

Target: T1, human LPA1 (Homo sapiens, UniProt Q92633)
T1 construct: the full-length cDNA for human LPA1 was obtained by PCR of the reverse transcription reaction; expressed in transfected cells
Assay: LPA1 calcium flux assay
Format: cell-based
Details: CHO cells expressing human LPA1, stimulated with 10 nM LPA; read-out: HLPA1 Ca Flux IC50
Description: A 1.1 kb cDNA encoding the human LPA1 receptor was cloned from human lung. Human lung RNA (Clontech Laboratories, Inc. USA) was reverse transcribed using the RETROscript kit (Ambion, Inc.) and the full-length cDNA for human LPA1 was obtained by PCR of the reverse transcription reaction. The nucleotide sequence of the cloned human LPA1 was determined by sequencing and confirmed to be identical to the published human LPA1 sequence (An et al. Biochenm. Biophys. Res. Commun. 231:619 (1997). The cDNA was cloned into the pCDNA5/FRT expression plasmid and transfected in CHO cells using lipofectamine 2000 (Invitrogen Corp., USA). Clones stably expressing human LPA1 were selected using hygromycin and identified as cells that show Ca-influx in response to LPA.
Human LPA1 or LPA3 expressing CHO cells are seeded at 20,000-45,000 cells per well in a 96-well poly-D-lysine coated plate one or two days before the assay. Prior to the assay, the cells are washed once with PBS and then cultured in serum-free media overnight. On the day of the assay, a calcium indicator dye (Calcium 4, Molecular Devices) in assay buffer (HBSS with Ca^2+ and Mg^2+ and containing 20 mM Hepes and 0.3% fatty-acid free human serum albumin) is added to each well and incubation continued for 1 hour at 37° C. 10 μl of test compounds in 2.5% DMSO are added to the cells and incubation continued at room temperature for 30 minutes. Cells are the stimulated by the addition of 10 nM LPA and intracellular Ca^2+ measured using the Flexstation 3 (Molecular Devices). IC50s are determined using Graphpad prism analysis of drug titration curves.

T1 sequence (Q92633 whole entry): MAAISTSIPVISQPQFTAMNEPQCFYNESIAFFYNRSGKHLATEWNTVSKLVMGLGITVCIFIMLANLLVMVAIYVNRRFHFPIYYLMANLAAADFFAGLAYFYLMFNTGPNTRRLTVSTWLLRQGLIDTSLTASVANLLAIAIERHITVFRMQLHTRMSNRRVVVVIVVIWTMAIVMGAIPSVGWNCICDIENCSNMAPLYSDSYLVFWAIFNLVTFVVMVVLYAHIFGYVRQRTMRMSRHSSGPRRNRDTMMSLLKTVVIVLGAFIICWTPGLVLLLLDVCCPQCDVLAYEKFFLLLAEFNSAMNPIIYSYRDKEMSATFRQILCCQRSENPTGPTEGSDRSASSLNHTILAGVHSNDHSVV

SMILES: Cc1noc(-c2ccc(-c3ccc([C@@H]4C[C@H]4C(=O)O)cc3)cc2)c1/C=C/CCc1ccccc1 (relative stereo) [Compound 1-128, (trans)-2-{4′-[3-Methyl-4-(4-phenyl-but-1-enyl)-isoxazol-5-yl]-biphenyl-4-yl}-cyclopropanecarboxylic acid]
- IC50: 1000 to 50000 nM

SMILES: Cc1noc(-c2ccc(-c3ccc([C@H]4C[C@H]4C(=O)O)cc3)cc2)c1/C=C/CCc1ccccc1 (relative stereo) [Compound 1-129, (cis)-2-{4′-[3-Methyl-4-(4-phenyl-but-1-enyl)-isoxazol-5-yl]-biphenyl-4-yl}-cyclopropanecarboxylic acid]
- IC50: < 300 nM

SMILES: Cc1noc(-c2ccc(-c3ccc([C@@H]4C[C@H]4C(=O)O)cc3)cc2)c1CSCCc1ccccc1 (relative stereo) [Compound 1-130, (trans)-2-[4′-(3-Methyl-4-phenethylsulfanylmethyl-isoxazol-5-yl)-biphenyl-4-yl]-cyclopropanecarboxylic acid]
- IC50: 300 to 1000 nM

SMILES: Cc1noc(-c2ccc(-c3ccc([C@H]4C[C@H]4C(=O)O)cc3)cc2)c1CSCCc1ccccc1 (relative stereo) [Compound 1-131, (cis)-2-[4′-(3-Methyl-4-phenethylsulfanylmethyl-isoxazol-5-yl)-biphenyl-4-yl]-cyclopropanecarboxylic acid]
- IC50: < 300 nM

SMILES: Cc1noc(-c2ccc(-c3ccc([C@H]4C[C@H]4C(=O)O)cc3)cc2)c1CC(F)(F)CCc1ccccc1 (relative stereo) [Compound 1-135, (cis)-2-{4′-[4-(2,2-Difluoro-4-phenyl-butyl)-3-methyl-isoxazol-5-yl]-biphenyl-4-yl}-cyclopropanecarboxylic acid]
- IC50: < 300 nM

SMILES: Cc1noc(-c2ccc(-c3ccc([C@H]4C[C@H]4C(=O)O)cc3)cc2)c1C(O)CCCc1ccccc1 (relative stereo) [Compound 1-144, (cis)-2-{4′-[4-(1-Hydroxy-4-phenyl-butyl)-3-methyl-isoxazol-5-yl]-biphenyl-4-yl}-cyclopropanecarboxylic acid]
- IC50: < 300 nM

SMILES: Cc1noc(-c2ccc(-c3ccc([C@H]4C[C@H]4C(=O)O)cc3)cc2)c1CSCCc1ccccc1 (single isomer, unassigned) [Compound 1-149, (cis)-2-[4′-(3-Methyl-4-phenethylsulfanylmethyl-isoxazol-5-yl)-biphenyl-4-yl]-cyclopropanecarboxylic acid]
- IC50: < 300 nM

SMILES: Cc1noc(-c2ccc(-c3ccc([C@H]4C[C@H]4C(=O)O)cc3)cc2)c1CSCCc1ccccc1 (single isomer, unassigned) [Compound 1-150, (cis)-2-[4′-(3-Methyl-4-phenethylsulfanylmethyl-isoxazol-5-yl)-biphenyl-4-yl]-cyclopropanecarboxylic acid]
- IC50: 1000 to 50000 nM

SMILES: Cc1noc(-c2ccc(-c3ccc(C4(C(=O)O)CC4)cc3)cc2)c1C(O)CCCc1ccccc1 (single isomer, unassigned) [Compound 1-156, 1-{4′-[4-(1-Hydroxy-4-phenyl-butyl)-3-methyl-isoxazol-5-yl]-biphenyl-4-yl}-cyclopropanecarboxylic acid]
- IC50: < 300 nM

SMILES: Cc1noc(-c2ccc(-c3ccc(CC(=O)O)cc3)cc2)c1C(O)CCCc1ccccc1 (single isomer, unassigned) [Compound 1-174, {4′-[4-(1-Hydroxy-4-phenyl-butyl)-3-methyl-isoxazol-5-yl]-biphenyl-4-yl}-acetic acid]
- IC50: < 300 nM

SMILES: Cc1noc(-c2ccc(-c3ccc(C4(CC(=O)O)CC4)cc3)cc2)c1C(O)CCCc1ccccc1 (single isomer, unassigned) [Compound 1-176, (1-{4′-[4-(1-Hydroxy-4-phenyl-butyl)-3-methyl-isoxazol-5-yl]-biphenyl-4-yl}-cyclopropyl)-acetic acid]
- IC50: < 300 nM

SMILES: Cc1noc(-c2ccc(-c3ccc(C4(CC(=O)O)CC4)cc3)cc2)c1C(O)CCCc1ccccc1 (single isomer, unassigned) [Compound 1-177, (1-{4′-[4-(1-Hydroxy-4-phenyl-butyl)-3-methyl-isoxazol-5-yl]-biphenyl-4-yl}-cyclopropyl)-acetic acid]
- IC50: < 300 nM

SMILES: Cc1noc(-c2ccc(-c3ccc(C4(C(=O)O)CC4)cc3)cc2)c1C(O)COCc1ccccc1 (single isomer, unassigned) [Compound 1-198, 1-{4′-[4-(2-Benzyloxy-1-hydroxy-ethyl)-3-methyl-isoxazol-5-yl]-biphenyl-4-yl}-cyclopropanecarboxylic acid]
- IC50: < 300 nM

SMILES: Cc1noc(-c2ccc(-c3ccc(C4(C(=O)O)CC4)cc3)cc2)c1C(O)COCc1ccccc1 (single isomer, unassigned) [Compound 1-199, 1-{4′-[4-(2-Benzyloxy-1-hydroxy-ethyl)-3-methyl-isoxazol-5-yl]-biphenyl-4-yl}-cyclopropanecarboxylic acid]
- IC50: < 300 nM

SMILES: Cc1noc(-c2ccc(-c3ccc(C4CC4C(=O)O)cc3)cc2)c1[C@H](O)COCc1ccccc1 (single isomer, unassigned) [Compound 1-216]
- IC50: < 300 nM

SMILES: Cc1noc(-c2ccc(-c3ccc(C4CC4C(=O)O)cc3)cc2)c1[C@H](O)COCc1ccccc1 (single isomer, unassigned) [Compound 1-217]
- IC50: < 300 nM

SMILES: Cc1noc(-c2ccc(-c3ccc(C4(C(=O)O)CC4)cc3)cc2)c1NC(C)CCc1ccccc1 (single isomer, unassigned) [Compound 1-220, 1-{4′-[3-Methyl-4-(1-methyl-3-phenyl-propylamino)-isoxazol-5-yl]-biphenyl-4-yl}-cyclopropanecarboxylic acid]
- IC50: < 300 nM

SMILES: Cc1noc(-c2ccc(-c3ccc(C4(C(=O)O)CC4)cc3)cc2)c1NC(C)CCc1ccccc1 (single isomer, unassigned) [Compound 1-221, 1-{4′-[3-Methyl-4-(1-methyl-3-phenyl-propylamino)-isoxazol-5-yl]-biphenyl-4-yl}-cyclopropanecarboxylic acid]
- IC50: < 300 nM

SMILES: Cc1noc(-c2ccc(-c3ccc(CCC(=O)O)cc3)cc2)c1NC(C)CCc1cccc(C(F)(F)F)c1 (single isomer, unassigned) [Compound 1-234, 3-(4′-{3-Methyl-4-[1-methyl-3-(3-trifluoromethyl-phenyl)-propylamino]-isoxazol-5-yl}-biphenyl-4-yl)-propionic acid]
- IC50: > 50000 nM

SMILES: Cc1noc(-c2ccc(-c3ccc(CCC(=O)O)cc3)cc2)c1NC(C)CCc1cccc(C(F)(F)F)c1 (single isomer, unassigned) [Compound 1-235, 3-(4′-{3-Methyl-4-[1-methyl-3-(3-trifluoromethyl-phenyl)-propylamino]-isoxazol-5-yl}-biphenyl-4-yl)-propionic acid]
- IC50: < 300 nM

SMILES: Cc1noc(-c2ccc(-c3ccc(C4(C(=O)O)CC4)cc3)cc2)c1NC(C)CCc1cccc(Cl)c1 (single isomer, unassigned) [Compound 1-239, 1-(4′-{4-[3-(3-Chloro-phenyl)-1-methyl-propylamino]-3-methyl-isoxazol-5-yl}-biphenyl-4-yl)-cyclopropanecarboxylic acid]
- IC50: < 300 nM

SMILES: Cc1noc(-c2ccc(-c3ccc(C4(C(=O)O)CC4)cc3)cc2)c1NC(C)CCc1cccc(Cl)c1 (single isomer, unassigned) [Compound 1-240, 1-(4′-{4-[3-(3-Chloro-phenyl)-1-methyl-propylamino]-3-methyl-isoxazol-5-yl}-biphenyl-4-yl)-cyclopropanecarboxylic acid]
- IC50: < 300 nM

SMILES: Cc1noc(-c2ccc(-c3ccc(C4(C(=O)O)CC4)cc3)cc2)c1C(O)C(F)(F)CCc1ccccc1 (single isomer, unassigned) [Compound 1-254, 1-{4′-[4-(2,2-Difluoro-1-hydroxy-4-phenyl-butyl)-3-methyl-isoxazol-5-yl]-biphenyl-4-yl}-cyclopropanecarboxylic acid]
- IC50: 300 to 1000 nM

SMILES: Cc1noc(-c2ccc(-c3ccc(C4(C(=O)O)CC4)cc3)cc2)c1/C=C/[S+]([O-])Cc1ccccc1 (single isomer, unassigned) [Compound 1-262, 1-(4′-{3-Methyl-4-[(E)-2-(phenylmethanesulfinyl)-vinyl]-isoxazol-5-yl}-biphenyl-4-yl)-cyclopropanecarboxylic acid]
- IC50: < 300 nM

SMILES: Cc1noc(-c2ccc(-c3ccc(C4(C(=O)O)CC4)cc3)cc2)c1/C=C/[S+]([O-])Cc1ccccc1 (single isomer, unassigned) [Compound 1-263, 1-(4′-{3-Methyl-4-[(E)-2-(phenylmethanesulfinyl)-vinyl]-isoxazol-5-yl}-biphenyl-4-yl)-cyclopropanecarboxylic acid]
- IC50: 1000 to 50000 nM

SMILES: Cc1noc(-c2ccc(-c3ccc(C4(C(=O)O)CC4)cc3)cc2)c1NC(C)C(O)Cc1ccccc1 (single isomer, unassigned) [Compound 1-282, 1-{4′-[4-(2-Hydroxy-1-methyl-3-phenyl-propylamino)-3-methyl-isoxazol-5-yl]-biphenyl-4-yl}-cyclopropanecarboxylic acid]
- IC50: < 300 nM
